According to US20260232767A1, “INTERLEUKIN-23 RECEPTOR ANTAGONIST PEPTIDES FOR USE IN THE TREATMENT OF PSORIASIS” (Janssen Pharmaceutica NV, priority 2023, published 2026):

Legend:
Format in all cases: in vivo, human
[1] = tested on: subjects with moderate-to-severe plaque psoriasis; experiment: PSSD symptoms and signs scores, Example 1; settings: each dose group vs placebo; Week 16
From the text: The Psoriasis Symptom and Sign Diary (PSSD) includes patient-reported outcome (PRO) questionnaires designed to measure the severity of psoriasis symptoms and signs for the assessment of treatment benefit. This study uses a 7-day recall version of the PSSD that asks the participant to answer the questions thinking about the last 7 days. The PSSD is a self-administered PRO instrument and includes 11 items covering symptoms (itch, pain, stinging, burning, and skin tightness) and patient-observable signs (skin dryness, cracking, scaling, shedding or flaking, redness, and bleeding) using 0 to 10 numerical rating scales for severity. Two subscores will be derived each ranging from 0 to 100: the psoriasis symptom score and the psoriasis sign score. A higher score indicates more severe disease.
Efficacy, PK, immunogenicity, biomarker, pharmacogenomic, and safety criteria were measured during the treatment. Subjects were provided with an electronic device to enter patient-reported outcome (PRO) data at each study visit. All visit-specific PRO assessments were conducted/completed before any tests, procedures or other clinical assessments, with the exception of the urine pregnancy test and urinalysis, to prevent influencing subject perceptions.

[2] = tested on: IL-17A; experiment: Serum IL-17A immunoassay; settings: all treatment groups relative to placebo
Method: (§1) To evaluate psoriasis relevant systemic biomarkers (Beta-defensin 2 (BD-2), IL-17A, IL-17F, and IL-22), protein concentrations were measured in serum using validated immunoassays. The IL-17A (Catalog #03-0159-00) and IL-17F (Catalog #03-0164-00) assays used are commercially available SMC™-based high sensitivity immunoassays produced by the EMD Millipore Corporation. The manufacturer's protocols were followed and analyzed on the Erenna® instrument platform except for the use of 11 μL Elution Buffer B. While the IL-22 assay is also based on the SMC™ platform and run on the Erenna instrument, the assay was developed internally as a coated plate-based assay. The development and optimization of the BD-2 assay was done on the Meso Scale Discovery on the electrochemiluminescence-based platform, a division of Meso Scale Diagnostics LLC (MSD). For all assays, concentration adjustments were made to values measuring below empirically defined LLOQ or empirically defined ULOQ values. Assay QC verified performance of generated standard curves (average concentration recovery & CV of technical replicates) and control samples (inter-assay plate agreement (CV)).
(§2) Serum levels of psoriasis disease biomarkers BD-2, IL-22, IL-17A, and IL-17F relative to baseline were analyzed in patients who received placebo or the compound of Formula (I) and compared to clinical response. […]

[3] = tested on: BD-2; experiment: Serum BD-2 immunoassay; settings: all treatment groups vs placebo; as early as Week 4
Method: as §1, §2

CC(=O)NCCCC[C@@H]1NC(=O)[C@H](Cc2c[nH]c3c(C)cccc23)NC(=O)[C@H]([C@@H](C)O)NC(=O)[C@H](CC(N)=O)NC(=O)[C@@H](NC(C)=O)C(C)(C)SSC(C)(C)[C@@H](C(=O)N[C@@H](Cc2ccc(OCCN)cc2)C(=O)N[C@@H](Cc2ccc3ccccc3c2)C(=O)NC2(C(=O)N[C@@H](CCC(=O)O)C(=O)N[C@@H](CC(N)=O)C(=O)N[C@@H](Cc3cccnc3)C(=O)N(C)CC(N)=O)CCOCC2)NC1=O [IL-23 receptor antagonist peptide, Ac-[Pen]*-N-T-[W(7-Me)]-[Lys(Ac)]-[Pen]*-Phe[4-(2-aminoethoxy)]-[2-Nal]-[THP]-E-N-[3-Pal]-Sarc-NH2 (*[Pen]-[Pen]* formdisulfidebond)]
Improvement (reduction) in PSSD signs score from baseline [1]: significantly greater improvement | Improvement (reduction) in PSSD symptoms score from baseline [1]: significantly greater improvement | IL-17A serum levels [2]: Statistically significant reductions | BD-2 serum levels [3]: Statistically significant reduction
